The text below walks through data of US20100144779A1, “Marine Alkalod Makaluvamines and Derivatives Thereof” (THE UAB RESEARCH FOUNDATION, priority 2007, published 2010).

Common to all, as to assay: MTT growth inhibition assay
What all share (format): cell-based, human
A general note: Tetrazolium dyes change colour on reduction, which living cells bring about.

The test system of one test is BEAS-2B. Conditions: normal cells, 72 hr, read-out: Growth inhibitory activity (IC50). As to the method: (§1) Several of the disclosed compounds were also tested for their ability to inhibit the growth of other cancer cell lines as shown in Tables 4 and 5. The cell lines were obtained from the American Type Culture Collection (Rockville, Md.) and were grown as follows: MCF-7 (p53 wt) breast cancer cells were grown in DMEM media containing 1 mM non-essential amino acids, Earle's BSS, 1 mM Na pyruvate, and 10 mg/L bovine insulin. MDA-MB-468 (p53 mt) cells were grown in DMEM/F-12 Ham's media (1:1 mixture); H838 (p53 wt) cells were grown in RPMI 1640. H358 (p53 null), H1299 (p53 null) cells were grown in RPMI 1640 supplemented with 1.5 g/L Na2CO3; 4.5 g/L glucose, 10 mM HEPES buffer, 1 mM Na pyruvate and 2 mM L-glutamine. A549 (p53 wt) cells were grown in Ham's F12K medium supplemented with 2 mM L-glutamine and 1.5 g/L Na2CO3; LNCaP (p53 wt) cells were grown in RPMI 1640 supplemented with 1.5 g/L Na2CO3, 4.5 g/L glucose, 10 mM HEPES buffer, 1 mM Na pyruvate and 2 mM L-glutamine. PC3 (p53 null) cells were cultured in Ham's F-12K medium containing 2 mM L-glutamine. TRAMP Cl cells were cultured in DEME medium with 4 mM L-glutamine adjusted to contain 1.5 g/L sodium bicarbonate and 4.5 g/L glucose supplemented with 0.005 mg/ml bovine insulin and 10 nM dehydroisoandrosterone, 5% fetal bovine serum and 5% Nu-Serum IV; HPAC (p53 wt) pancreatic cancer cells were grown in a 1:1 mixture of DMEM and Ham's F12 medium containing 1.2 g/L Na2CO3, 2.5 mM L-glutamine, 15 mM HEPES and 0.5 mM Na pyruvate supplemented with 0.002 mg/mL insulin, 5 μg/mL transferrin, 40 ng/mL hydrocortisone, 10 ng/mL epidermal growth factor and 5% fetal bovine serum. PANC-1 (p53 mt) cells were cultured with RPMI 1640 containing 1 mM HEPES buffer, 25 μg/mL gentamicin, 1.5 g/L Na2CO3 and 0.25 μg/mL amphotericin B. BxPC-3 (p53 mt) cells were grown in RPMI 1640 medium, MiaPaCa-2 (p53 mt) and S2013 (p53 mt) cells were grown in DMEM, cell line CFPAC1 (p53 mt) was grown in Iscove's MEM supplemented with 4 mM L-glutamine; T98G (p53 mt) glioma cells were cultured with DMEM supplemented with 1% Na pyruvate, and 1% non-essential amino acids; HCT116 human colon cancer cell lines were kindly provided by Dr. Bert Vogelstein (Johns Hopkins Oncology Center, Baltimore, Md.). The HCT116 cell line was maintained in McCoy's-5A media; Human bronchial epithelial cell line BEAS 2B was cultured in DMEM medium; Human mammary epithelial cell line MCF10A was cultured in a 1:1 mixture of DMEM and Ham's F12 medium containing 5% horse serum, 15 mM hepes buffer, 10 ug/ml insulin, 20 ng/ml EGF, 100 ng/ml choleratoxin and 0.5 ug/ml hydrocortisone; the human primary fibroblast cell lines IMR90-EEA and IMR90-E1A (transformed using the adenoviral oncogene E1A) were gifts from Dr. S. Lee (Harvard University, Boston, Mass.). IMR90 and IMR90-E1A cells were cultured in DMEM medium.
(§2) All media contained 10% FBS and 1% penicillin/streptomycin unless otherwise specified. The effects of disclosed compounds on human cancer cell growth, expressed as the percentage of cell survival, were determined by the MTT [3-(4,5-Dimethyl-2-thiazolyl)-2,5-diphenyl-2H-tetrazolium bromide] assay. Cells were grown in 96-well plates and exposed to the test compounds (0, 0.01, 0.1, 1, 10, 100 μM) for 72 hr followed by addition of 10 μL MTT solution (5 mg/mL; Sigma; St. Louis, Mo.) to each well. The plates were incubated for 2-4 hr at 37° C. The supernatant was then removed and formazan crystals were dissolved with 100 μL of DMSO. The absorbance at 570 nm was recorded with an OPTImax microplate reader (Molecular Devices; Sunnyvale, Calif.). The cell survival percentages were calculated by dividing the mean OD of compound containing wells by that of DMSO-control wells. Three separate experiments were accomplished to determine the IC50.

The subject of the next test is BXPC3. To be noted: 72 hr, read-out: Growth inhibitory activity (IC50). On the procedure: as §1, §2
A further test deals with CFPAC1. Conditions: 72 hr, read-out: Growth inhibitory activity (IC50). As to the method: as §1, §2
A further test concerns H1299. To be noted: 72 hr, read-out: Growth inhibitory activity (IC50). On the procedure: as §1, §2
A further test concerns H358. Conditions: 72 hr, read-out: Growth inhibitory activity (IC50). On the procedure:
as §1, §2

The subject of another test is H838. Conditions: 72 hr, read-out: Growth inhibitory activity (IC50). On the procedure: as §1, §2
In another test the test system is HPAC. Conditions: cancer cell, 72 hr, read-out: Growth inhibitory activity (IC50). As to the method:
as §1, §2

A further test relates to IMR90-EEA. Conditions: normal cells, 72 hr, read-out: Growth inhibitory activity (IC50). As to the method:
as §1, §2

In a further test the test system is LNCaP. To be noted: cancer cell, 72 hr, read-out: Growth inhibitory activity (IC50). On the procedure: as §1, §2
Another test relates to MCF10A. To be noted: normal cells, 72 hr, read-out: Growth inhibitory activity (IC50). As to the method:
as §1, §2

A further test relates to MDA-MB-468. To be noted: MDA-MB-468, cancer cell, 72 hr, read-out: Growth inhibitory activity (IC50). On the procedure: as §1, §2
For another test, the system named is Mia-paca. To be noted: 72 hr, read-out: Growth inhibitory activity (IC50). On the procedure: as §1, §2
For another test, the system named is Panc-1. To be noted: Panc-1, cancer cell, 72 hr, read-out: Growth inhibitory activity (IC50). As to the method:
as §1, §2

The subject of a further test is S2013. To be noted: S2013, cancer cell, 72 hr, read-out: Growth inhibitory activity (IC50). As to the method:
as §1, §2

The mark [1] stands for this setting: Homo sapiens, BXPC-3, BXPC3, cancer cell.
Setting [2] is: Homo sapiens, CFPAC-1, CFPAC1, cancer cell.
The mark [3] stands for this setting: Homo sapiens, NCI-H1299, H1299, cancer cell.
[4] abbreviates: Homo sapiens, NCI-H358, H358, cancer cell.
[5] abbreviates: Homo sapiens, NCI-H838, H838, cancer cell.
Setting [6] is: Homo sapiens, MIA PaCa-2, cancer cell.

Structures are written as SMILES. Where two headings read alike, the source gives them in different places.

With `O=C1C(NCCc2ccccc2)=CC2=NCCc3c[nH]c1c32` [Compound 4d], the IC50 (as a rule, the concentration at which inhibition is half-maximal) with BEAS-2B was 0.695 µM; in the test with BXPC3 (BXPC3, cancer cell) it was 2.94 µM; with CFPAC1 (CFPAC1, cancer cell), 5.11 µM; with H1299 (H1299, cancer cell) it was 4.27 µM; in the test on H358 (H358, cancer cell) it was 0.398 µM; with H838 (H838, cancer cell), 0.26 µM. In addition, the IC50 with HPAC was 1.13 µM; in the test on IMR90-EEA, 3.77 µM; in the test with LNCaP, 0.161 µM; with MCF10A it was 6.82 µM; in the test on MDA-MB-468 it was 0.101 µM; in the test on Mia-paca (cancer cell) it was 0.982 µM. Further, the IC50 in the test on Panc-1 came out at 0.258 µM; in the test with S2013, 5.39 µM.

Regarding `O=C(O)C(F)(F)F.O=C1C(NCc2ccc(F)cc2)=CC2=NCCc3c[nH]c1c32` [Compound 28], the half-inhibitory concentration (IC50) in the test with BEAS-2B (Homo sapiens) came to 0.587 µM; in the test on BXPC3 (setting [1]), 2.3 µM; in the test with CFPAC1 (setting [2]), 5.4 µM; in the test with H1299 (setting [3]) it was 0.968 µM; in the test on H358 (setting [4]), 0.17 µM; in the test with H838 (setting [5]) it was 0.11 µM. Besides, the half-inhibitory concentration (IC50) with HPAC (Homo sapiens) stood at 0.535 µM; with IMR90-EEA (Homo sapiens), 1.49 µM; with LNCaP (Homo sapiens) it was 1.29 µM; with MCF10A (Homo sapiens, MCF-10A), 5.33 µM; in the test with MDA-MB-468 (Homo sapiens), 0.125 µM; with Mia-paca (setting [6]) it was 0.315 µM. The IC50 in the test with Panc-1 (Homo sapiens) worked out at 0.104 µM; in the test with S2013 (Homo sapiens), 4.45 µM.

Take `O=C1C(NCc2ccccc2)=CC2=NCCc3c[nH]c1c32` [Compound 4c]: the half-inhibitory concentration (IC50) in the test on BEAS-2B worked out at 1.45 µM; in the test on BXPC3 (BXPC3, cancer cell), 2.87 µM; with CFPAC1 (CFPAC1, cancer cell) it was 8.77 µM; with H1299 (H1299, cancer cell) it was 1.42 µM; in the test with H358 (H358, cancer cell) it was 0.436 µM; in the test on H838 (H838, cancer cell) it was 0.16 µM. Besides, the 50% inhibitory concentration (IC50) in the test on HPAC is 0.689 µM; in the test on IMR90-EEA it was 2.77 µM; in the test on LNCaP it was 2.75 µM; with MCF10A it was 5.27 µM; in the test with MDA-MB-468 it was 0.126 µM; in the test on Mia-paca (cancer cell), 0.345 µM. For the same compound, the 50% inhibitory concentration (IC50) worked out at 0.141 µM in the test on Panc-1 and 3.85 µM in the test on S2013.

On to `O=C(O)C(F)(F)F.O=C1C(NCCc2ccc3c(c2)OCO3)=CC2=NCCc3c[nH]c1c32` [Compound 6], for which the IC50 in the test on BEAS-2B (Homo sapiens) came to 2.24 µM; with BXPC3 (setting [1]) it was 3.21 µM; with CFPAC1 (setting [2]), 9.1 µM; with H1299 (setting [3]), 5.95 µM; in the test with H358 (setting [4]), 1.2 µM; with H838 (setting [5]), 0.665 µM. In addition, the half-inhibitory concentration (IC50) with HPAC (Homo sapiens) is 2.92 µM; in the test on IMR90-EEA (Homo sapiens), 5.7 µM; in the test with LNCaP (Homo sapiens), 3.96 µM; in the test on MCF10A (Homo sapiens, MCF-10A), 13.1 µM; in the test on MDA-MB-468 (Homo sapiens), 0.428 µM; in the test with Mia-paca (setting [6]), 2.74 µM. Also, the IC50 worked out at 0.587 µM with Panc-1 (Homo sapiens) and 11.2 µM in the test with S2013 (Homo sapiens).

For the compound `COc1ccc(CCNC2=CC3=NCCc4c[nH]c(c43)C2=O)cc1OC.O=C(O)C(F)(F)F` [Compound 20], the IC50 came out at 1.69 µM in the test on BEAS-2B (Homo sapiens); 5.01 µM in the test with BXPC3 (setting [1]); 4.27 µM in the test on CFPAC1 (setting [2]); 5.99 µM in the test with H1299 (setting [3]); 0.983 µM in the test with H358 (setting [4]); 0.838 µM in the test on H838 (setting [5]). Moreover, the IC50 in the test with HPAC (Homo sapiens) came to 2.85 µM; in the test with IMR90-EEA (Homo sapiens), 2.88 µM; in the test on LNCaP (Homo sapiens) it was 24.5 µM; in the test with MCF10A (Homo sapiens, MCF-10A) it was 3.4 µM; in the test with MDA-MB-468 (Homo sapiens), 0.277 µM; in the test with Mia-paca (setting [6]), 1.32 µM. In addition, the half-maximal inhibitory concentration (IC50) in the test with Panc-1 (Homo sapiens) turned out to be 0.72 µM; with S2013 (Homo sapiens), 29.6 µM.
